Data reported in patent US11759509B2, “WT1 antigen peptide conjugate vaccine” (Sumitomo Pharma Co., Ltd., priority 2013, dated 2023).
Positions of bridges follow the written chain, without caps; N, C: chain ends. Residues, ends and D or L forms follow the SMILES beside them. Chains are numbered I, II in the order given. No end group written: not given here.

Assays:
[1] = physchem; conditions: for solubility at 90 min: pH 6; for solubility thermodynamic at 90 min: pH 7.4
Experimental: Measurement of Solubility
(§1) 75% aqueous solution of disodium hydrogen phosphate and 5.53% aqueous solution of citric acid were mixed, and respective buffers (pH 6.0 and 7.4) were prepared.
(§2) About 1 mg of a test product was measured, an isotonic buffer (0.5 mL) was added, and this was used as a test solution. The prepared test solution was shaken at room temperature for 90 min (shaking conditions: RECIPRO SHAKER SR-1N manufactured by TAITEC, Speed=8), centrifuged (15000 rpm, 5 min, room temperature), and the supernatant after centrifugation was used as a test solution.
(§3) About 1 mg of the test product was accurately measured, dissolved in 0.1% TFA water/acetonitrile=1/1, made the total amount 10 mL, and this was used as a standard solution of the test product.
(§4) The standard solution of the test product and the test solution were analyzed by HPLC (analysis conditions described in Table 59), and the solubility of the test product was calculated from the peak area ratio of the standard solution.
(§5) • column: ChemcoPack Quicksorb (4.6 mmφ×150 mm, 5 μm) manufactured by Chemco Scientific Co., Ltd. • mobile phase: SOLUTION A; 0.1% TFA water, SOLUTION B; 0.1% TFA acetonitrile solution • column temperature: room temperature • flow rate: 1 mL/min • detection wavelength: UV 254 nm, 230 nm (2 wavelength detection) • sample injection volume: 10 μL

[2] = target: ERAP1 (Homo sapiens, UniProt Q9NZ08); test: Time-course changes of trimming of N-terminal amino acid by ERAP1; assay type: biochemical; conditions: room temperature
Experimental: Time-Course Changes of Trimming of N-Terminal Amino Acid by ERAP1
30 μl of ERAP1 (2.0 mg/ml) in PBS buffer solution was added to 258 μl of Tris·HCl buffer. DMSO solution (12.0 μl) of 10 mM each peptide was added to the aforementioned ERAP1 solution, and the mixture was blended well and stood at room temperature. 1.0, 2.0, 4.0, 8.0 hr later, 50 μl of a sample was added to 150 μl of MeOH to terminate the reaction, 25 μl was injected into UFLC (analysis conditions shown below), and AUC of the object peptide was determined. […] Concentration of SOLUTION B was raised from 1.0% to 70% from 0.0 min to 5.0 min • 2. Concentration of SOLUTION B was raised from 1.0% to 50% from 0.0 min to 5.0 min • object peptide: […]

[3] = Measurement of solubility in isotonic buffer (pH 6.0 and 7.4); conditions: isotonic disodium hydrogen phosphate/citric acid buffer
Experimental: Measurement of Solubility
as §1, §2, §3, §4, §5

ERAP1, sequence (Q9NZ08 whole entry): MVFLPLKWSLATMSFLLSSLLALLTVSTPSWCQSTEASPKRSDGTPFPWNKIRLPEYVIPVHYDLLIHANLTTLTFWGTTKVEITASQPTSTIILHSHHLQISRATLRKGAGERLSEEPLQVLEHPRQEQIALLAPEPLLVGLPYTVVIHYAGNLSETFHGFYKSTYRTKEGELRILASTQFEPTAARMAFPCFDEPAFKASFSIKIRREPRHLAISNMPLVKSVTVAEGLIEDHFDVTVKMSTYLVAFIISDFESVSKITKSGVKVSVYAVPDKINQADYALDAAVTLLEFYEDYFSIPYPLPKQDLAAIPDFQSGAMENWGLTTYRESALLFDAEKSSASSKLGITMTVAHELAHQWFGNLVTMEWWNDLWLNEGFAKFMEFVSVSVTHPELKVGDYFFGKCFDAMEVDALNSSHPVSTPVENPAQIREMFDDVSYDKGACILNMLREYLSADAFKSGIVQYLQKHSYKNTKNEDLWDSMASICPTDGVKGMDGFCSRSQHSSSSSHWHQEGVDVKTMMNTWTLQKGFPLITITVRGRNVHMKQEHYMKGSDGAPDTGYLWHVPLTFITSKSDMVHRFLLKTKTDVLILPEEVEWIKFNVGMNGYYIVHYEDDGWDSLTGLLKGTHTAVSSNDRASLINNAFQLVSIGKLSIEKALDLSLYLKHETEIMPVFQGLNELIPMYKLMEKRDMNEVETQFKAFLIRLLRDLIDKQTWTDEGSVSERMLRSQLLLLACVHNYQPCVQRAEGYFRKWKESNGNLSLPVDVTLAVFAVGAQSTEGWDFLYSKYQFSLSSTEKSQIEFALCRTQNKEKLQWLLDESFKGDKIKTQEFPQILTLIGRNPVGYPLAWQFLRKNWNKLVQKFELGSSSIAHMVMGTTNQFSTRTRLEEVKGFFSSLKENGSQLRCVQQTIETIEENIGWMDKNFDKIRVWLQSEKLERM

Compound	solubility at 90 min [1] [µg/mL]	solubility thermodynamic at 90 min [1] [µg/mL]	further results
ALLPAVPSL [SEQ ID NO: 5]	> 1000	> 1000	–
CNKRYFKLSHLQMHSRKHTG [SEQ ID NO: 24]	> 1000	556	–
CSLGEQQYSV [Example 5]	–	–	formation rate (%) of the peptide obtained by trimming, 1 hr later [2]: 77.6%; formation rate (%) of the peptide obtained by trimming, 2 hr later [2]: 72.8%; formation rate (%) of the peptide obtained by trimming, 4 hr later [2]: 46.0%; formation rate (%) of the peptide obtained by trimming, 8 hr later [2]: 7.90%
CSCC[C@H](NC(=O)[C@H](CCCNC(=N)N)NC(=O)[C@@H](N)CSSC[C@H](N)C(=O)N[C@@H](CO)C(=O)N[C@@H](CC(C)C)C(=O)NCC(=O)N[C@@H](CCC(=O)O)C(=O)N[C@@H](CCC(N)=O)C(=O)N[C@@H](CCC(N)=O)C(=O)N[C@@H](Cc1ccc(O)cc1)C(=O)N[C@@H](CO)C(=O)N[C@H](C(=O)O)C(C)C)C(=O)N[C@@H](Cc1ccccc1)C(=O)N1CCC[C@H]1C(=O)N[C@@H](CC(N)=O)C(=O)N[C@@H](C)C(=O)N1CCC[C@H]1C(=O)N[C@@H](Cc1ccc(O)cc1)C(=O)N[C@@H](CC(C)C)C(=O)O [formula (3)] (I: H-CRMFPNAPYL-OH / II: H-CSLGEQQYSV-OH; disulfide I:1-II:1)	> 1000	> 1000	–
CSCC[C@H](NC(=O)[C@@H](N)CCCNC(=N)N)C(=O)N[C@@H](Cc1ccccc1)C(=O)N1CCC[C@H]1C(=O)N[C@@H](CC(N)=O)C(=O)N[C@@H](C)C(=O)N1CCC[C@H]1C(=O)N[C@@H](Cc1ccc(O)cc1)C(=O)N[C@@H](CC(C)C)C(=O)O [SEQ ID NO: 2]	> 1000	> 1000	–
CNKRYFKLSHLQMHSRKH [SEQ ID NO: 23]	> 1000	712	–
CSCC[C@H](NC(=O)[C@H](CCC(N)=O)NC(=O)[C@H](CC(C)C)NC(=O)[C@H](Cc1c[nH]cn1)NC(=O)[C@H](CO)NC(=O)[C@H](CC(C)C)NC(=O)[C@H](CCCCN)NC(=O)[C@H](Cc1ccccc1)NC(=O)[C@H](Cc1ccc(O)cc1)NC(=O)[C@H](CCCNC(=N)N)NC(=O)[C@H](CCCCN)NC(=O)[C@H](CC(N)=O)NC(=O)[C@@H](N)CSSC[C@H](N)C(=O)N[C@@H](CCCNC(=N)N)C(=O)N[C@@H](CCSC)C(=O)N[C@@H](Cc1ccccc1)C(=O)N1CCC[C@H]1C(=O)N[C@@H](CC(N)=O)C(=O)N[C@@H](C)C(=O)N1CCC[C@H]1C(=O)N[C@@H](Cc1ccc(O)cc1)C(=O)N[C@@H](CC(C)C)C(=O)O)C(=O)N[C@@H](Cc1c[nH]cn1)C(=O)N[C@@H](CO)C(=O)N[C@@H](CCCNC(=N)N)C(=O)N[C@@H](CCCCN)C(=O)O [formula (8)] (I: H-CNKRYFKLSHLQMHSRK-OH / II: H-CRMFPNAPYL-OH; disulfide I:1-II:1)	> 1000	789	–
CSCC[C@H](NC(=O)[C@H](CCC(N)=O)NC(=O)[C@H](CC(N)=O)NC(=O)[C@H](Cc1c[nH]c2ccccc12)NC(=O)[C@@H](NC(=O)[C@H](Cc1ccc(O)cc1)NC(=O)[C@@H](N)CSSC[C@H](N)C(=O)N[C@@H](CCCNC(=N)N)C(=O)N[C@@H](CCSC)C(=O)N[C@@H](Cc1ccccc1)C(=O)N1CCC[C@H]1C(=O)N[C@@H](CC(N)=O)C(=O)N[C@@H](C)C(=O)N1CCC[C@H]1C(=O)N[C@@H](Cc1ccc(O)cc1)C(=O)N[C@@H](CC(C)C)C(=O)O)[C@@H](C)O)C(=O)N[C@@H](CC(N)=O)C(=O)N[C@@H](CC(C)C)C(=O)O [formula (5)] (I: H-CRMFPNAPYL-OH / II: H-CYTWNQMNL-OH; disulfide I:1-II:1)	511	200	–
CNKRYFKLSHLQMHSRK [SEQ ID NO: 22]	> 1000	931	–
CRVPGVAPTL [Example 4]	–	–	formation rate (%) of the peptide obtained by trimming, 1 hr later [2]: 59.1%; formation rate (%) of the peptide obtained by trimming, 2 hr later [2]: 57.5%; formation rate (%) of the peptide obtained by trimming, 4 hr later [2]: 30.1%; formation rate (%) of the peptide obtained by trimming, 8 hr later [2]: 7.80%
CSCC[C@H](NC(=O)[C@H](CCC(N)=O)NC(=O)[C@H](CC(C)C)NC(=O)[C@H](Cc1c[nH]cn1)NC(=O)[C@H](CO)NC(=O)[C@H](CC(C)C)NC(=O)[C@H](CCCCN)NC(=O)[C@H](Cc1ccccc1)NC(=O)[C@H](Cc1ccc(O)cc1)NC(=O)[C@H](CCCNC(=N)N)NC(=O)[C@H](CCCCN)NC(=O)[C@H](CC(N)=O)NC(=O)[C@@H](N)CSSC[C@H](N)C(=O)N[C@@H](CCCNC(=N)N)C(=O)N[C@@H](CCSC)C(=O)N[C@@H](Cc1ccccc1)C(=O)N1CCC[C@H]1C(=O)N[C@@H](CC(N)=O)C(=O)N[C@@H](C)C(=O)N1CCC[C@H]1C(=O)N[C@@H](Cc1ccc(O)cc1)C(=O)N[C@@H](CC(C)C)C(=O)O)C(=O)N[C@@H](Cc1c[nH]cn1)C(=O)N[C@@H](CO)C(=O)N[C@@H](CCCNC(=N)N)C(=O)N[C@@H](CCCCN)C(=O)N[C@@H](Cc1c[nH]cn1)C(=O)N[C@H](C(=O)NCC(=O)O)[C@@H](C)O [formula (6)] (I: H-CNKRYFKLSHLQMHSRKHTG-OH / II: H-CRMFPNAPYL-OH; disulfide I:1-II:1)	> 1000	279	–
SLGEQQYSV [SEQ ID NO: 6]	> 1000	> 1000	–
CSCC[C@H](NC(=O)[C@H](CCC(N)=O)NC(=O)[C@H](CC(C)C)NC(=O)[C@H](Cc1c[nH]cn1)NC(=O)[C@H](CO)NC(=O)[C@H](CC(C)C)NC(=O)[C@H](CCCCN)NC(=O)[C@H](Cc1ccccc1)NC(=O)[C@H](Cc1ccc(O)cc1)NC(=O)[C@H](CCCNC(=N)N)NC(=O)[C@H](CCCCN)NC(=O)[C@H](CC(N)=O)NC(=O)[C@@H](N)CSSC[C@H](N)C(=O)N[C@@H](C)C(=O)N[C@@H](CC(C)C)C(=O)N[C@@H](CC(C)C)C(=O)N1CCC[C@H]1C(=O)N[C@@H](C)C(=O)N[C@H](C(=O)N1CCC[C@H]1C(=O)N[C@@H](CO)C(=O)N[C@@H](CC(C)C)C(=O)O)C(C)C)C(=O)N[C@@H](Cc1c[nH]cn1)C(=O)N[C@@H](CO)C(=O)N[C@@H](CCCNC(=N)N)C(=O)N[C@@H](CCCCN)C(=O)N[C@@H](Cc1c[nH]cn1)C(=O)N[C@H](C(=O)NCC(=O)O)[C@@H](C)O [formula (9)] (I: H-CNKRYFKLSHLQMHSRKHTG-OH / II: H-CALLPAVPSL-OH; disulfide I:1-II:1)	> 1000	565	–
CYTWNQMNL [SEQ ID NO: 4]	–	–	solubility at 90 min ([3]; pH 6): 106 µg/mL; solubility thermodynamic at 90 min ([3]; pH 7.4): 167 µg/mL
CALLPAVPSL [Example 3]	–	–	formation rate (%) of the peptide obtained by trimming, 1 hr later [2]: 65.5%; formation rate (%) of the peptide obtained by trimming, 2 hr later [2]: 50.6%; formation rate (%) of the peptide obtained by trimming, 4 hr later [2]: 13.5%; formation rate (%) of the peptide obtained by trimming, 8 hr later [2]: 0%
